# US20260062422A1 (Halda Therapeutics OpCo, Inc., priority 2022, published 2026)
# Columns and labels:
# [1] = test system: T-Rex 293 cell line SC3 cells having increased expression of androgen receptor protein due to exposure to doxycycline; assay: Cellular growth inhibition, T-Rex 293 SC3 cells with doxycycline (androgen receptor induced), CellTiter-Glo; assay type: cell-based; conditions: 72 h, T-Rex 293 SC3 cells with 10 ng/mL doxycycline (increased androgen receptor expression)
# Description: (§1) The following types of cells were prepared for this experiment: (i) a T-Rex 293 cell line having increased expression of androgen receptor protein due to exposure to doxycycline and (ii) a T-Rex 293 cell line lacking increased expression of androgen receptor protein. Ability of the test compounds to inhibit proliferation of the foregoing cell types was evaluated according to the procedures set forth below.
# (§2) The doxycycline-inducible androgen receptor protein expressing cell line was established using the following protocol: T-Rex 293 cells were purchased from Invitrogen (Cat #R71007) and transfected using Lipofectamine 2000 with the wild-type androgen receptor protein sequence cloned into the pcDNA4/TO vector. Transfected cells were selected using 400 μg/mL Zeocin (Invitrogen Cat #R25001). Following selection, single clones were raised and maintained in Dulbecco's Modified Eagle Medium (DMEM) supplemented with 10% w/w Tetracycline-free fetal bovine serum (FBS) and 250 μg/mL Zeocin. Clones were analyzed for expression of androgen receptor protein in the presence and absence of 10 ng/mL doxycycline (Sigma Cat #D9891), and a single doxycycline-inducible clone (hereinafter “SC3”) was selected for use in downstream assays.
# (§3) The SC3 cells were seeded on poly-D-lysine coated, black clear-bottom 384-well plates at 2500/well, in 25 μL Phenol Red Free Dulbecco's Modified Eagle Medium (DMEM) supplemented with 10% w/w charcoal-dextran treated fetal bovine serum (FBS) and 1% w/w pen-strep, with or without 10 ng/mL doxycycline. Pen-Strep is a commercially available mixture of penicillin G and streptomycin, which is used in mammalian cell culture media to prevent bacterial contamination. Phenol Red Free Dulbecco's Modified Eagle Medium (DMEM) supplemented with 10% w/w charcoal-dextran treated fetal bovine serum (FBS) and 1% w/w pen-strep, with or without 10 ng/mL doxycycline is herein referred to as Treatment Medium. Following seeding of cells in the plates, the plates were spun at 300×g for 30 seconds, then equilibrated to room temperature for 30 minutes, and then deposited in a humidified tissue culture incubator maintained at 37° C. with 5% CO2.
# (§4) At 24 hours after seeding of the cells, dilutions of test compound were prepared in DMSO and dissolved in Treatment Medium, to achieve a final DMSO concentration of 0.5% w/w, thereby providing the Test Compound Solution. A 25 μL aliquot of the Test Compound Solution was added to cells in the well plates. An equal volume of a solution containing DMSO and Treatment Medium was used as a negative control. Following treatment of cells with Test Compound Solution or said equal volume of a solution containing DMSO and Treatment Medium, the plates were spun at 300×g for 30 seconds, and then left in an incubator for 72 hours. At the end of the treatment duration, cell viability was quantified with CellTiter-Glo 2.0 reagent (Promega Cat #G9243). For this purpose, plates were equilibrated to room temperature for 30 minutes, and then 25 μL of CellTiter-Glo 2.0 reagent was added to cells in the plate wells. Plates were then agitated on a shaker for two minutes at 500 rpm and subsequently incubated at room temperature for 10 minutes. Following incubation, the plates were spun at 3000×g for 30 seconds, then sealed with an optical adhesive cover, and luminescence readings were measured with an EnVision Plate Reader. Data was normalized using zero luminescence for baseline. A four-parameter non-linear regression curve fit was applied to dose-response data in GraphPad Prism data analysis software to determine the half-maximal growth inhibitory concentration (GI50) for each test compound.
# [2] = test system: T-Rex 293 cell line SC3 cells lacking increased expression of androgen receptor protein; assay: Cellular growth inhibition, T-Rex 293 SC3 cells without doxycycline, CellTiter-Glo; assay type: cell-based; conditions: 72 h, T-Rex 293 SC3 cells not exposed to doxycycline, CellTiter-Glo 2.0
# Description: as §1, §2, §3, §4
# VCaP cells = assay: Cellular growth inhibition assay for VCaP cells, CellTiter-Glo; assay type: cell-based, human; conditions: Homo sapiens, VCaP, 72 h, 72 hours treatment, CellTiter-Glo 2.0
# Description: VCaP cells were purchased from American Type Cell Culture (ATCC Cat #CRL2876) and then seeded on poly-D-lysine coated, black clear-bottom 384-well plates at 5000/well in 25 μL Dulbecco's Modified Eagle Medium (DMEM) supplemented with 10% w/w Fetal bovine serum (FBS) and 1% w/w Pen-Strep. Pen-Strep is a commercially available mixture of penicillin G and streptomycin, which is used in mammalian cell culture media to prevent bacterial contamination. Dulbecco's Modified Eagle Medium (DMEM) supplemented with 10% w/w fetal bovine serum (FBS) and 1% w/w Pen-Strep is herein referred to as Treatment Medium. Following seeding of cells in the plates, the plates were spun at 300×g for 30 seconds, then equilibrated to room temperature for 30 minutes, and then deposited in a humidified tissue culture incubator maintained at 37° C. with 5% CO2.
# At 24 hours after seeding of the cells, dilutions of test compound were prepared in DMSO and dissolved in Treatment Medium, to achieve a final DMSO concentration of 0.5% w/w, thereby providing the Test Compound Solution. A 25 μL aliquot of the Test Compound Solution was added to cells in the well plates. An equal volume of a solution containing DMSO and Treatment Medium was used as a negative control. Following treatment of cells with Test Compound Solution or said equal volume of a solution containing DMSO and Treatment Medium, the plates were spun at 300×g for 30 seconds, and then left in an incubator for 72 hours.
# At the end of the treatment duration, cell viability was quantified with CellTiter-Glo 2.0 reagent (Promega Cat #G9243). For this purpose, plates were equilibrated to room temperature for 30 minutes, and then 25 μL of CellTiter-Glo 2.0 reagent was added to cells in the plate wells. Plates were then agitated on a shaker for two minutes at 500 rpm and subsequently incubated at room temperature for 10 minutes. Following incubation, the plates were spun at 3000×g for 30 seconds, then sealed with an optical adhesive cover, and luminescence readings were measured with an EnVision Plate Reader.
# Data was normalized using zero luminescence for baseline. A four-parameter non-linear regression curve fit was applied to dose-response data in GraphPad Prism data analysis software to determine the half-maximal growth inhibitory concentration (GI50) for each test compound.
Compound,GI50 (VCaP cells) [nM],GI50 [1] [nM],GI50 [2] [nM]
"Cc1sc2c(c1C)C(c1ccc(Cl)cc1)=N[C@@H](CC(=O)NCCOCCOCCN(C)c1ncc(C(=O)N[C@H]3C(C)(C)[C@H](Oc4ccc(C#N)c(Cl)c4)C3(C)C)cn1)c1nnc(C)n1-2 [Compound I-2, N-[3-(3-chloro-4-cyano-phenoxy)-2,2,4,4-tetramethyl-cyclobutyl]-2-[2-[2-[2-[[2-[(9S)-7-(4-chlorophenyl)-4,5,13-trimethyl-3-thia-1,8,11,12-tetrazatricyclo[8.3.0.02,6]trideca-2(6),4,7,10,12-pentaen-9-yl]acetyl]amino]ethoxy]ethoxy]ethyl-methylamino]pyrimidine-5-carboxamide]",< 500,< 500,1500 to 3000
Cc1sc2c(c1C)C(c1ccc(N3CCCN(CCCNc4ncc(C(=O)N[C@H]5C(C)(C)[C@H](Oc6ccc(C#N)c(Cl)c6)C5(C)C)cn4)CC3)cc1)=N[C@@H](Cc1ncco1)c1nnc(C)n1-2 [Compound I-666],< 500,< 500,1500 to 3000
Cc1sc2c(c1C)C(c1ccc(N3CCC(C)(CNc4ncc(C(=O)N[C@H]5C(C)(C)[C@H](Oc6ccc(C#N)c(Cl)c6)C5(C)C)cn4)CC3)cc1)=NC(Cc1ncco1)c1nnc(C)n1-2 (stereo partly drawn) [Compound I-667],< 500,< 500,< 500
Cc1sc2c(c1C)C(c1ccc(N3CCO[C@@H](CNc4ncc(C(=O)N[C@H]5C(C)(C)[C@H](Oc6ccc(C#N)c(Cl)c6)C5(C)C)cn4)C3)cc1)=NC(Cc1ncco1)c1nnc(C)n1-2 (stereo partly drawn) [Compound I-669],< 500,< 500,< 500
Cc1sc2c(c1C)C(c1ccc(N3CCN(c4ncc(C(=O)N[C@H]5C(C)(C)[C@H](Oc6ccc(C#N)c(Cl)c6)C5(C)C)cn4)CC(F)(F)C3)cc1)=NC(Cc1ncco1)c1nnc(C)n1-2 (stereo partly drawn) [Compound I-670],< 500,< 500,> 3000
Cc1sc2c(c1C)C(c1ccc(N3CCC4(CC3)CC(Nc3ncc(C(=O)N[C@H]5C(C)(C)[C@H](Oc6ccc(C#N)c(Cl)c6)C5(C)C)cn3)C4)cc1)=N[C@@H](Cc1ncco1)c1nnc(C)n1-2 [Compound I-668],< 500,< 500,< 500
Cc1sc2c(c1C)C(c1ccc(Cl)cc1)=N[C@@H](CC(=O)NCCCOCCCCOC1CCN(c3ncc(C(=O)N[C@H]4C(C)(C)[C@H](Oc5ccc(C#N)c(Cl)c5)C4(C)C)cn3)CC1)c1nnc(C)n1-2 [Compound I-33],< 500,< 500,< 500
Cc1sc2c(c1C)C(c1ccc(Cl)cc1)=N[C@@H](CC(=O)NCCOCCCOC1CCN(c3ncc(C(=O)N[C@H]4C(C)(C)[C@H](Oc5ccc(C#N)c(Cl)c5)C4(C)C)cn3)CC1)c1nnc(C)n1-2 [Compound I-27],< 500,< 500,500 to 1500
Cc1sc2c(c1C)C(c1ccc(Cl)cc1)=NC(CC(=O)NCCOCCCCOC1CCN(c3ncc(C(=O)N[C@H]4C(C)(C)[C@H](Oc5ccc(C#N)c(Cl)c5)C4(C)C)cn3)CC1)c1nnc(C)n1-2 (stereo partly drawn) [Compound I-30],< 500,< 500,< 500
Cc1sc2c(c1C)C(c1ccc(-c3cn(C4CCN(c5ncc(C(=O)N[C@H]6C(C)(C)[C@H](Oc7ccc(C#N)c(Cl)c7)C6(C)C)cn5)CC4)cn3)cc1)=N[C@@H](Cc1ncco1)c1nnc(C)n1-2 [Compound I-484],500 to 1500,< 500,500 to 1500
"Cc1sc2c(c1C)C(c1ccc(Cl)cc1)=N[C@@H](CC(=O)NCCCCN1CCN(CC3CCN(c4ncc(C(=O)N[C@H]5C(C)(C)[C@H](Oc6ccc(C#N)c(Cl)c6)C5(C)C)cn4)CC3)CC1)c1nnc(C)n1-2 [Compound I-37, N-((1r,3r)-3-(3-chloro-4-cyanophenoxy)-2,2,4,4-tetramethylcyclobutyl)-2-(4-((4-(4-(2-((S)-4-(4-chlorophenyl)-2,3,9-trimethyl-6H-thieno[3,2-f][1,2,4]triazolo[4,3-a][1,4]diazepin-6-yl)acetamido)butyl)piperazin-1-yl)methyl)piperidin-1-yl)pyrimidine-5-carboxamide]",< 500,< 500,500 to 1500
CCNC(=O)C[C@@H]1N=C(c2ccc(OCCOCCOC3CCN(c4ncc(C(=O)N[C@H]5C(C)(C)[C@H](Oc6ccc(C#N)c(Cl)c6)C5(C)C)cn4)CC3)c(F)c2F)c2c(sc(C)c2C)-n2c(C)nnc21 [Compound I-74],< 500,< 500,500 to 1500

# Further lines, with some results ahead:
GI50 (VCaP cells) [nM],Compound,GI50 [1] [nM],GI50 [2] [nM]
500 to 1500,CCNC(=O)C[C@@H]1N=C(c2ccc(CCCCOC3CCN(c4ncc(C(=O)N[C@H]5C(C)(C)[C@H](Oc6ccc(C#N)c(Cl)c6)C5(C)C)cn4)CC3)cc2)c2c(sc(C)c2C)-n2c(C)nnc21 [Compound I-91],< 500,500 to 1500
< 500,CCNC(=O)C[C@@H]1N=C(c2ccc(OCCCCOC3CCN(c4ncc(C(=O)NC5C(C)(C)C(Oc6ccc(C#N)c(Cl)c6)C5(C)C)cn4)CC3)cc2)c2c(sc(C)c2C)-n2c(C)nnc21 (stereo partly drawn) [Compound I-64],< 500,< 500
> 3000,Cc1sc2c(c1C)C(c1ccc(Cl)cc1)=N[C@@H](CC(=O)NCCCCCCCCOC1CCN(c3ncc(C(=O)N[C@H]4C(C)(C)[C@H](Oc5ccc(C#N)c(Cl)c5)C4(C)C)cn3)CC1)c1nnc(C)n1-2 [Compound I-25],< 500,> 3000
< 500,Cc1sc2c(c1C)C(c1ccc(Cl)cc1)=N[C@@H](CC(=O)NCCCCCCOC1CCN(c3ncc(C(=O)N[C@H]4C(C)(C)[C@H](Oc5ccc(C#N)c(Cl)c5)C4(C)C)cn3)CC1)c1nnc(C)n1-2 [Compound I-23],< 500,< 500
< 500,Cc1sc2c(c1C)C(c1ccc(Cl)cc1)=N[C@@H](CC(=O)NCCOCCCCCOC1CCN(c3ncc(C(=O)N[C@H]4C(C)(C)[C@H](Oc5ccc(C#N)c(Cl)c5)C4(C)C)cn3)CC1)c1nnc(C)n1-2 [Compound I-34],< 500,< 500
1500 to 3000,CCNC(=O)C[C@@H]1N=C(c2ccc(CCCCCOC3CCN(c4ncc(C(=O)N[C@H]5C(C)(C)[C@H](Oc6ccc(C#N)c(Cl)c6)C5(C)C)cn4)CC3)cc2)c2c(sc(C)c2C)-n2c(C)nnc21 [Compound I-89],< 500,500 to 1500
